The values below come from US10219516B2, “Molecules having pesticidal utility, and intermediates, compositions, and processes, related thereto” (priority 2015, dated 2019).

Test [1] concerns Beet Armyworm (Spodoptera exigua, LAPHEG). As to the kind of experiment: Bioassay on Beet Armyworm (BAW), 128-well diet tray assay. The format is in vivo. On the procedure:
(§1) Certain molecules disclosed in this document were tested against BAW and CL using procedures described in the following examples. In the reporting of the results, the “BAW & CL Rating Table” was used (See Table Section).
Bioassays on BAW were conducted using a 128-well diet tray assay. One to five second instar BAW larvae were placed in each well (3 mL) of the diet tray that had been previously filled with approximately 1.5 mL of artificial diet to which 50 μg/cm^2 of the test molecule (dissolved in 50 μL of 90:10 acetone-water mixture) had been applied (to each of eight wells) and then allowed to dry. Trays were covered with a clear self-adhesive cover, vented to allow gas exchange, and held at 25° C., 14:10 light-dark for five to seven days. Percent mortality was recorded for the larvae in each well; activity in the eight wells was then averaged. The results are indicated in the table entitled “Table ABC: Biological Results” (See Table Section).

The subject of test [2] is Cabbage Looper (Trichoplusia ni, TRIPNI). As to the kind of experiment: Bioassay on Cabbage Looper (CL), 128-well diet tray assay. To be noted: Trichoplusia ni. The format is in vivo. On the procedure:
as §1
Bioassays on CL were conducted using a 128-well diet tray assay. one to five second instar CL larvae were placed in each well (3 mL) of the diet tray that had been previously filled with 1 mL of artificial diet to which 50 μg/cm^2 of the test molecule (dissolved in 50 μL of 90:10 acetone-water mixture) had been applied (to each of eight wells) and then allowed to dry. Trays were covered with a clear self-adhesive cover, vented to allow gas exchange, and held at 25° C., 14:10 light-dark for five to seven days. Percent mortality was recorded for the larvae in each well; activity in the eight wells was then averaged. The results are indicated in the table entitled “Table ABC: Biological Results” (See Table Section).

The mark [3] stands for this setting: Species BAW (Beet Armyworm), read-out: BAW (Biological Results, rating).
Where [4] appears, read: Species CL (Cabbage Looper), read-out: CL (Biological Results, rating).
The mark [5] stands for this setting: Beet Armyworm, 128-well diet tray assay, read-out: BAW rating.
The mark [6] stands for this setting: Cabbage Looper, 128-well diet tray assay, read-out: CL rating.

Each structure is given as a SMILES string. Like-named read-outs stand apart in the source and are kept apart here.

As for `O=C(Nc1ccc(F)cc1)c1cc(NC(=O)[C@H]2[C@H](c3cc(Br)cc(Br)c3)C2(Cl)Cl)ccc1Cl` (relative stereo) [F90, trans-2-Chloro-5-(2,2-dichloro-3-(3,5-dibromophenyl)cyclopropane-1-carboxamido)-N-(4-fluorophenyl)benzamide], the pest or weed control at 50 µg/cm2 in test [1] (setting [3]) and in test [2] (setting [4]) was 50 to 100% each time.

As for `O=C(Nc1nc2ccc(F)cc2[nH]1)c1cc(NC(=O)C2C(c3cc(Cl)cc(Cl)c3)C2(Cl)Cl)ccc1Cl` (stereo not drawn) [F451, 2-Chloro-5-(trans)-2,2-dichloro-3-(3,5-dichlorophenyl)cyclopropane-1-carboxamido)-N-(6-fluoro-1H-benzo[d]imidazol-2-yl)benzamide], the pest or weed control at 50 µg/cm2 in test [1] (setting [5]) and in test [2] (setting [6]) was 50 to 100% throughout.

For `COCC(=O)Nc1ccc(NC(=O)c2cc(NC(=O)[C@H]3[C@H](c4cc(Cl)cc(Cl)c4)C3(Cl)Cl)ccc2Cl)cc1` (relative stereo) [PF27, trans-2-Chloro-5-(2,2-dichloro-3-(3,5-dichlorophenyl)cyclopropane-1-carboxamido)-N-(4-(2-methoxyacetamido)phenyl)benzamide], the pest or weed control at 50 µg/cm2 in test [1] (setting [5]) and in test [2] (setting [6]) was 50 to 100% in each case.

Take `Cc1cc(NC(=O)OC(C)(C)C)ccc1NC(=O)c1cc(NC(=O)[C@H]2[C@H](c3cc(Cl)c(Cl)c(Cl)c3)C2(Cl)Cl)ccc1Cl` [F278, tert-Butyl (4-(2-chloro-5-((1R,3R)-2,2-dichloro-3-(3,4,5-trichlorophenyl)cyclopropane-1-carboxamido)benzamido)-3-methylphenyl)carbamate]: the pest or weed control at 50 µg/cm2 in test [1] (setting [3]) and in test [2] (setting [4]) was 50 to 100% throughout.

With `O=C(Nc1ccc(F)c(C(F)(F)F)c1)c1cc(NC(=O)[C@H]2[C@H](c3cc(Cl)cc(Cl)c3)C2(Cl)Cl)ccc1Cl` (relative stereo) [PF70, trans-2-Chloro-5-(2,2-dichloro-3-(3,5-dichlorophenyl)cyclopropane-1-carboxamido)-N-(4-fluoro-3-(trifluoromethyl)phenyl)benzamide], the pest or weed control at 50 µg/cm2 in test [1] (setting [5]) and in test [2] (setting [6]) was 50 to 100% throughout.

As for `N#Cc1ccc(NC(=O)c2cc(NC(=O)[C@H]3[C@H](c4cc(Cl)c(Cl)c(Cl)c4)C3(Cl)Cl)ccc2F)c(F)c1` (relative stereo) [F95, trans-N-(4-Cyano-2-fluorophenyl)-5-(2,2-dichloro-3-(3,4,5-trichlorophenyl)cyclopropane-1-carboxamido)-2-fluorobenzamide], the pest or weed control at 50 µg/cm2 in test [1] (setting [3]) and in test [2] (setting [4]) was 50 to 100% in each case.

Take `Cc1c(Cl)cc([C@H]2[C@H](C(=O)Nc3ccc(Cl)c(C(=O)Nc4c(F)cccc4F)c3)C2(Cl)Cl)cc1Cl` (relative stereo) [F121, trans-2-Chloro-5-(2,2-dichloro-3-(3,5-dichloro-4-methylphenyl)cyclopropane-1-carboxamido)-N-(2,6-difluorophenyl)benzamide]: the pest or weed control at 50 µg/cm2 in test [1] (setting [3]) and in test [2] (setting [4]) was 50 to 100% each time.

As to `CN(C(=O)c1cc(NC(=O)[C@H]2[C@H](c3cc(Cl)c(F)c(Cl)c3)C2(Cl)Cl)ccc1Cl)c1ccc(F)cc1` (relative stereo) [F97, trans-2-Chloro-5-(2,2-dichloro-3-(3,5-dichloro-4-fluorophenyl)cyclopropane-1-carboxamido)-N-(4-fluorophenyl)-N-methylbenzamide], the pest or weed control at 50 µg/cm2 in test [1] (setting [3]) and in test [2] (setting [4]) was 50 to 100% throughout.

For `CNc1ccc(N(C)C(=O)c2cc(NC(=O)[C@H]3[C@H](c4cc(Cl)cc(Cl)c4)C3(Cl)Cl)ccc2Cl)c(C)c1` (relative stereo) [F225, trans-2-Chloro-5-(2,2-dichloro-3-(3,5-dichlorophenyl)cyclopropane-1-carboxamido)-N-methyl-N-(2-methyl-4-(methylamino)phenyl)benzamide], the pest or weed control at 50 µg/cm2 in test [1] (setting [3]) and in test [2] (setting [4]) was 50 to 100% each time.

As to `N#Cc1ccc(NC(=O)c2cc(NC(=O)[C@H]3[C@H](c4cc(Cl)cc(Cl)c4)C3(Cl)Cl)ccc2F)c(F)c1` (relative stereo) [F93, trans-N-(4-Cyano-2-fluorophenyl)-5-(2,2-dichloro-3-(3,5-dichlorophenyl)cyclopropane-1-carboxamido)-2-fluorobenzamide], the pest or weed control at 50 µg/cm2 in test [1] (setting [3]) and in test [2] (setting [4]) was 50 to 100% in each case.

With `Nc1c(F)ccc(NC(=O)c2cc(NC(=O)C3C(c4c(F)c(F)c(F)c(F)c4F)C3(Cl)Cl)ccc2Cl)c1F` (stereo not drawn) [F626, N-(3-Amino-2,4-difluorophenyl)-2-chloro-5-(2,2-dichloro-3-trans-(perfluorophenyl)cyclopropane-1-carboxamido)benzamide], the pest or weed control at 50 µg/cm2 in test [1] (setting [5]) and in test [2] (setting [6]) was 50 to 100% in each case.

On to `O=C(Nc1ccc(F)cc1)c1cccc(NC(=O)[C@H]2[C@H](c3cc(Cl)cc(Cl)c3)C2(Cl)Cl)n1` (relative stereo) [F133, trans-6-(2,2-Dichloro-3-(3,5-dichlorophenyl)cyclopropane-1-carboxamido)-N-(4-fluorophenyl)picolinamide], for which the pest or weed control at 50 µg/cm2 in test [1] (setting [3]) and in test [2] (setting [4]) was 50 to 100% each time.

Consider `Cc1ccc(-c2csc(NC(=O)c3cc(NC(=O)[C@H]4[C@H](c5cc(Cl)cc(Cl)c5)C4(Cl)Cl)ccc3Cl)n2)cc1` (relative stereo) [PF136, trans-2-Chloro-5-(2,2-dichloro-3-(3,5-dichlorophenyl)cyclopropane-1-carboxamido)-N-(4-(p-tolyl)thiazol-2-yl)benzamide], for which the pest or weed control at 50 µg/cm2 in test [1] (setting [5]) and in test [2] (setting [6]) was 50 to 100% each time.

As to `Nc1c(F)ccc(NC(=O)c2cc(NC(=O)C3C(c4ccc(F)c(Br)c4)C3(Cl)Cl)ccc2Cl)c1F` (stereo not drawn) [F625, N-(3-Amino-2,4-difluorophenyl)-5-(3-trans-(3-bromo-4-fluorophenyl)-2,2-dichlorocyclopropane-1-carboxamido)-2-chlorobenzamide], the pest or weed control at 50 µg/cm2 in test [1] (setting [5]) and in test [2] (setting [6]) was 50 to 100% each time.

Take `Cc1c(Cl)cc([C@H]2[C@H](C(=O)Nc3ccc(Cl)c(C(=O)N(C)c4ccc(F)cc4)c3)C2(Cl)Cl)cc1Cl` (relative stereo) [F120, trans-2-Chloro-5-(2,2-dichloro-3-(3,5-dichloro-4-methylphenyl)cyclopropane-1-carboxamido)-N-(4-fluorophenyl)-N-methylbenzamide]: the pest or weed control at 50 µg/cm2 in test [1] (setting [3]) and in test [2] (setting [4]) was 50 to 100% each time.

On to `CN(C(=O)OC(C)(C)C)c1ccc(NC(=O)c2cc(NC(=O)[C@H]3[C@H](c4cc(Cl)cc(Cl)c4)C3(Cl)Cl)ccc2Cl)cc1` (relative stereo) [PF12, trans-tert-Butyl-(4-(2-chloro-5-(2,2-dichloro-3-(3,5-dichlorophenyl)cyclopropane-1-carboxamido)benzamido)phenyl)(methyl)carbamate], for which the pest or weed control at 50 µg/cm2 in test [1] (setting [5]) and in test [2] (setting [6]) was 50 to 100% throughout.

On to `CN(C(=O)[C@H]1[C@H](c2cc(Cl)cc(Cl)c2)C1(Cl)Cl)c1ccc(Cl)c(C(=O)Nc2ccc(F)cc2)c1` (relative stereo) [F183, trans-2-Chloro-5-(2,2-dichloro-3-(3,5-dichlorophenyl)-N-methylcyclopropane-1-carboxamido)-N-(4-fluorophenyl)benzamide], for which the pest or weed control at 50 µg/cm2 in test [1] (setting [3]) and in test [2] (setting [4]) was 50 to 100% throughout.

`O=C(Nc1ccc(F)cc1)c1cc(NC(=O)[C@H]2[C@H](c3cc(Cl)c(Cl)cc3Cl)C2(Cl)Cl)ccc1Cl` (relative stereo) [F73, trans-2-Chloro-5-(2,2-dichloro-3-(2,4,5-trichlorophenyl)cyclopropane-1-carboxamido)-N-(4-fluorophenyl)benzamide]: the pest or weed control at 50 µg/cm2 in test [1] (setting [3]) and in test [2] (setting [4]) was 50 to 100% in each case.

Consider `COc1c(Cl)cc([C@H]2[C@H](C(=O)Nc3ccc(Cl)c(C(=O)Nc4ccc(NC(C)=O)cc4)c3)C2(Cl)Cl)cc1Cl` (relative stereo) [F181, trans-N-(4-Acetamidophenyl)-2-chloro-5-(2,2-dichloro-3-(3,5-dichloro-4-methoxyphenyl)cyclopropane-1-carboxamido)benzamide], for which the pest or weed control at 50 µg/cm2 in test [1] (setting [3]) and in test [2] (setting [4]) was 50 to 100% in each case.

Take `O=C(Nc1ccc(F)cc1)c1cc(NC(=O)[C@H]2[C@H](c3cc(C(F)(F)F)cc(C(F)(F)F)c3)C2(Cl)Cl)ccc1Cl` (relative stereo) [F84, trans-5-(3-(3,5-Bis(trifluoromethyl)phenyl)-2,2-dichlorocyclopropane-1-carboxamido)-2-chloro-N-(4-fluorophenyl)benzamide]: the pest or weed control at 50 µg/cm2 in test [1] (setting [3]) and in test [2] (setting [4]) was 50 to 100% throughout.
